Assay results: BigSolDB 2.1

O=C(O)CCCCCCCC(=O)O
Settings | solubility (mole fraction)
in acetic acid, 289.05 K | 0.022
in acetic acid, 293.95 K | 0.0279
in acetic acid, 298.85 K | 0.0355
in acetic acid, 303.45 K | 0.0452
in acetic acid, 308.35 K | 0.0582
in acetic acid, 313.35 K | 0.0746
in acetic acid, 318.85 K | 0.0964
in acetic acid, 325.35 K | 0.132
in acetic acid, 330.95 K | 0.169
in acetic acid, 337.35 K | 0.223
in acetic acid, 341.75 K | 0.265
in acetone, 276.65 K | 0.00895
in acetone, 279.45 K | 0.0103
in acetone, 283.15 K | 0.0129
in acetone, 286.95 K | 0.0158
in acetone, 294.15 K | 0.0228
in acetone, 297.55 K | 0.0275
in acetone, 303.05 K | 0.0365
in acetone, 306.55 K | 0.0438
in acetone, 312.05 K | 0.0587
in acetone, 316.15 K | 0.0732
in acetone, 320.95 K | 0.1
in acetone, 325.35 K | 0.12
in ethanol, 276.75 K | 0.0212
in ethanol, 280.05 K | 0.0253
in ethanol, 283.25 K | 0.0292
in ethanol, 288.15 K | 0.0362
in ethanol, 293.05 K | 0.0449
in ethanol, 297.55 K | 0.0546
in ethanol, 304.05 K | 0.069
in ethanol, 307.35 K | 0.083
in ethanol, 312.05 K | 0.0969
in ethanol, 317.05 K | 0.117
in ethanol, 322.05 K | 0.143
in ethanol, 326.85 K | 0.166
in ethanol, 332.05 K | 0.202
in ethanol, 336.55 K | 0.234
in ethylene glycol, 278.65 K | 0.0083
in ethylene glycol, 283.35 K | 0.01
in ethylene glycol, 288.05 K | 0.0105
in ethylene glycol, 292.85 K | 0.0144
in ethylene glycol, 297.35 K | 0.0241
in ethylene glycol, 303.35 K | 0.03
in ethylene glycol, 307.35 K | 0.0395
in ethylene glycol, 312.25 K | 0.0496
in ethylene glycol, 317.05 K | 0.0622
in ethylene glycol, 321.55 K | 0.0791
in ethylene glycol, 326.45 K | 0.103
in ethylene glycol, 331.35 K | 0.131
in ethylene glycol, 336.15 K | 0.167
